Results published in patent US11059819B2, “Fused hetero-hetero bicyclic compounds and methods of use thereof” (Araxes Pharma LLC, priority 2017, dated 2021).

Target: T1, KRAS G12C 1-169, his-tagged protein, GDP-loaded (Homo sapiens, UniProt P01116, G12C)
T1 construct: KRAS G12C 1-169, his-tagged protein, GDP-loaded
Assay: Biochemical assay: covalent modification of KRAS G12C measured by mass spectrometry (RapidFire/TOF or Q-Exactive)
Type: binding
Details: compound concentration and incubation time not given
Description: Test compounds are prepared as 10 mM stock solutions in DMSO (Fisher cat #BP-231-100). KRAS G12C 1-169, his-tagged protein, GDP-loaded is diluted to 2 μM or 0.5 μM in buffer (20 mM Hepes, 150 mM NaCl, 1 mM MgCl2). Compounds are tested for activity as follows:
Compounds are diluted to 50× final test concentration in DMSO in 96-well storage plates. Compound stock solutions are vortexed before use and observed carefully for any sign of precipitation. Dilutions are as follow: • For 100 μM final compound concentration, compounds are diluted to 5000 μM (5 μL 10 mM compound stock+5 μL DMSO and mixed well by pipetting. • For 30 μM final compound concentration, compounds are diluted to 1500 μM (3 μI, 10 mM compound stock+17 μL DMSO) and mixed well by pipetting. • For 10 μM final compound concentration, compounds are diluted to 500 μM (2 μL 10 mM compound stock+38 μL DMSO) and mixed well by pipetting. 49 μL of the stock protein solution is added to each well of a 96-well PCR plate (Fisher cat #1423027). 1 μl of the diluted 50× compounds are added to appropriate wells in the PCR plate using 12-channel pipettor. Reactions are mixed carefully and thoroughly by pipetting up/down with a 200 μL multi-channel pipettor. […] The plate is then resealed with aluminum seal and stored on dry ice until analyzed as described below.
The above described assays are analyzed by mass spectrometry according to one of the following two procedures: […]
After another 30 minute equilibration time, a blank batch (i.e., buffer) is run to ensure equipment is operating properly. […] The method is then run and masses of each individual well recorded. […]
The masses and peak intensities of KRAS G12C protein species are measured using a Dionex RSLCnano system (Thermo Scientific) connected to a Q Exactive Plus mass spectrometer (Thermo Scientific). […]
The mass spectrometer is operated in profile mode at a resolution of 17500, 5 microscans, using 50 msec max injection time and an AGC target of 1×10^6, and a full mass range from 800-1850 m/z is recorded. […]

T1 sequence (P01116 1-169 isoform P01116-2 G12C): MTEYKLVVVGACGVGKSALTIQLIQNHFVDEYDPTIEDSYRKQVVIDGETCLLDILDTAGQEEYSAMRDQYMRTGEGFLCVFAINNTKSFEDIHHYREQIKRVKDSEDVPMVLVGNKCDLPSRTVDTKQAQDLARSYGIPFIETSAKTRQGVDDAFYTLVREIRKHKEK

SMILES | Binding %
C=CC(=O)N1CC(n2cnc3c(Nc4c(C)ccc5cn[nH]c45)cncc3c2=O)C1 [Compound 55, 3-(1-acryloylazetidin-3-yl)-8-((6-methyl-1H-indazol-7-yl)amino)pyrido[4,3-d]pyrimidin-4(3H)-one] | + (+ indicates binding activity up to 5%)
C=CC(=O)N1CC(n2cnc3c(Nc4cc(O)cc5ccccc45)cncc3c2=O)C1 [Compound 56, 3-(1-acryloylazetidin-3-yl)-8-((3-hydroxynaphthalen-1-yl)amino)pyrido[4,3-d]pyrimidin-4(3H)-one] | + (+ indicates binding activity up to 5%)
C=CC(=O)N1CC(n2cc(C)c3cncc(Nc4c(C)ccc5[nH]ncc45)c3c2=O)C1 [Compound 57, 2-(1-acryloylazetidin-3-yl)-4-methyl-8-((5-methyl-1H-indazol-4-yl)amino)-2,6-naphthyridin-1(2H)-one] | + (+ indicates binding activity up to 5%)
